Data as given in patent publication US9156822B2, “Functionally selective ligands of dopamine D2 receptors” (The University of North Carolina at Chapel Hill, priority 2010, dated 2015).
Read-outs that look alike come from different tables or passages of the source. One block for each molecule: values may come before it.

Experiments:
hD2 receptors = hD2 receptors (Homo sapiens (Human), UniProt P14416); experiment: D2 mediated cAMP GloSensor assay; assay type: cell-based; conditions: for Emax: read-out: cAMP (GloSensor) Emax; for cAMP (GloSensor) activity in words (merged EC50/Emax cell): key: neutral: Neutral ligands are either antagonists or are inactive
D2 receptors [1] = molecular target: T1, D2 receptors (Homo sapiens (Human), UniProt P14416); experiment: CHO-D2 radioligand binding assay ([3H]N-methylspiperone competition); conditions: read-out: D2 Binding Ki ± SEM
Target sequence in this assay (P14416 whole entry): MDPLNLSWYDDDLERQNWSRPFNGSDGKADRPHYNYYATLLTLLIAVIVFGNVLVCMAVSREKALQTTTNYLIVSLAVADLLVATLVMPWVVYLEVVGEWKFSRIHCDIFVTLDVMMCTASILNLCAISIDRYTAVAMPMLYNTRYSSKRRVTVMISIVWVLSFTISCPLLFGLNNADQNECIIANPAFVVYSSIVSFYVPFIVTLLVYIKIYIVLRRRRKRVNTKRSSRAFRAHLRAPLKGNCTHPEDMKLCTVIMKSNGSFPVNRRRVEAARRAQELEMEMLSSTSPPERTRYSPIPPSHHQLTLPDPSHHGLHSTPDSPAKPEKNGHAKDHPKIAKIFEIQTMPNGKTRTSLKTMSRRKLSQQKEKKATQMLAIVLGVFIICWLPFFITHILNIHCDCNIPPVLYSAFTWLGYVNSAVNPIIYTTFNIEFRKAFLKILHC

D2 receptors [2] = molecular target: T1, D2 receptors; experiment: D2 β-arrestin recruitment (Tango) assay; assay type: cell-based
Experimental: The next day, cells were plated in white, clear-bottom, 384-well plates (Greiner, 10,000 cells/well, 50 μl/well) in DMEM containing 1% dialyzed fetal bovine serum. […] Data were normalized to vehicle (0%) and quinpirole (100%) controls and regressed using the sigmoidal dose-response function built into GraphPad Prism 4.0.
Target sequence in this assay (P14416 whole entry, looked up): as the sequence (P14416 whole entry) above

[3] = system: wild-type and β-arrestin-2 knockout mice; conditions: β-arrestin-2 knockout mice, i.p., 5.0 mg/kg (haloperidol 2.0 mg/kg), 30 and 60 min
hD2L dopamine receptor = hD2L dopamine receptor (Homo sapiens (Human), UniProt P14416); experiment: pERK high-content assay; assay type: cell-based
[4] = CHO-D2 membranes, [3H]N-methylspiperone
[5] = normalized to quinpirole (100%)
[6] = HTLA cells, read-out: β-arrestin (Tango) EC50
[7] = HEK293T, isoproterenol-stimulated cAMP
[8] = normalized to quinpirole, negative = inverse agonist

Sequence of hD2 receptors (P14416 whole entry): as above
Sequence of hD2L dopamine receptor (P14416 whole entry): as above

Structure (SMILES): O=C1NCCc2ccc(OCCCCN3CCC(c4cccc(Cl)c4Cl)CC3)cc21 [Compound 33, 7-(4-(4-(2,3-dichlorophenyl)piperidin-1-yl)butoxy)-3,4-dihydroisoquinolin-1(2H)-one]
cAMP (GloSensor) activity in words (merged EC50/Emax cell) (hD2 receptors): neutral
Ki (D2 receptors [1]; [4]): 20 ± 3 nM
melting point: 113 to 114 °C
EC50 (D2 receptors [2]): 24 nM
β-arrestin (Tango) % activ at 1 μM (D2 receptors [2]): 26%
Emax (D2 receptors [2]; [5]): 64%

Structure (SMILES): O=C(CCCN1CCC(O)(c2ccc(Cl)cc2)CC1)c1ccc(F)cc1 [haloperidol, reference compound]
catalepsy (latency to move, inclined screen test) [3]: inducing catalepsy

Structure (SMILES): Clc1cccc(C2CCN(CCCCOc3ccc4scnc4c3)CC2)c1Cl [Compound 21, 5-(4-(4-(2,3-dichlorophenyl)piperidin-1-yl)butoxy)benzo[d]thiazole]
EC50 (hD2 receptors): 21 nM
Emax (hD2 receptors): -27%
Ki (D2 receptors [1]): 42 ± 4 nM
melting point: 79 to 81 °C
β-arrestin (Tango) % activ at 1 μM (D2 receptors [2]): 26%
EC50 (D2 receptors [2]; [6]): 82 nM
Emax (D2 receptors [2]; [5]): 81%

Structure (SMILES): Clc1cccc(N2CCN(CCCCOc3ccc4scnc4c3)CC2)c1Cl [Compound 36, 5-(4-(4-(2,3-dichlorophenyl)piperazin-1-yl)butoxy)benzo[d]thiazole]
cAMP (GloSensor) activity in words (merged EC50/Emax cell) (hD2 receptors): neutral
Ki (D2 receptors [1]; [4]): 17 ± 3 nM
melting point: 93 to 94.5 °C
EC50 (D2 receptors [2]): 59 nM
β-arrestin (Tango) % activ at 1 μM (D2 receptors [2]): 13%
Emax (D2 receptors [2]; [5]): 64%

Structure (SMILES): O=C1NCCc2ccc(OCCCCN3CCCN(c4cccc(Cl)c4Cl)CC3)cc21 [Compound 6, 7-(4-(4-(2,3-dichlorophenyl)-1,4-diazepan-1-yl)butoxy)-3,4-dihydroisoquinolin-1(2H)-one]
melting point: 86 to 88 °C

Structure (SMILES): Clc1cccc(N2CCCN(CCCCOc3ccc4scnc4c3)CC2)c1Cl [Compound 7, 5-(4-(4-(2,3-dichlorophenyl)-1,4-diazepan-1-yl)butoxy)benzo[d]thiazole]
melting point: 82 to 84 °C

Structure (SMILES): O=C1NCCc2ccc(OCCCN3CCCN(c4cccc(Cl)c4Cl)CC3)cc21 [Compound 5, 7-(3-(4-(2,3-dichlorophenyl)-1,4-diazepan-1-yl)propoxy)-3,4-dihydroisoquinolin-1(2H)-one]
EC50 (hD2 receptors; [7]): 5.6 nM
Emax (hD2 receptors; [8]): -16%
Ki (D2 receptors [1]; [4]): 5.7 ± 0.8 nM
melting point: 116 to 117 °C
β-arrestin (Tango) % activ at 1 μM (D2 receptors [2]): 13%
EC50 (D2 receptors [2]; [6]): 8 nM
Emax (D2 receptors [2]; [5]): 47%

Structure (SMILES): Clc1cccc(N2CCN(CCCOc3ccc4cn[nH]c4c3)CC2)c1Cl [Compound 20, 6-(3-(4-(2,3-dichlorophenyl)piperazin-1-yl)propoxy)-1H-indazole]
EC50 (hD2 receptors; [7]): 9.7 nM
Emax (hD2 receptors; [8]): -22%
Ki (D2 receptors [1]; [4]): 104 ± 13 nM
melting point: 159 to 161 °C
β-arrestin (Tango) % activ at 1 μM (D2 receptors [2]): 45%
EC50 (D2 receptors [2]; [6]): 59 nM
Emax (D2 receptors [2]; [5]): 90%

Structure (SMILES): O=c1[nH]c2ccc(OCCCCN3CCC(c4cccc(Cl)c4Cl)CC3)cc2[nH]1 [Compound 24, 5-(4-(4-(2,3-dichlorophenyl)piperidin-1-yl)butoxy)-1H-benzo[d]imidazol-2(3H)-one]
melting point: 180 to 182 °C

Structure (SMILES): Clc1cccc(N2CCCN(CCCOc3ccc4scnc4c3)CC2)c1Cl [Compound 8, 5-(3-(4-(2,3-dichlorophenyl)-1,4-diazepan-1-yl)propoxy)benzo[d]thiazole]
Emax (hD2 receptors; [8]): -26%
melting point: 93 to 94 °C

Structure (SMILES): O=C1CCc2ccc(OCCCCN3CCN(c4cccc5c4OCCO5)CC3)nc2N1 [Compound 41, 7-(4-(4-(2,3-dihydrobenzo[b][1,4]dioxin-5-yl)piperazin-1-yl)butoxy)-3,4-dihydro-1,8-naphthyridin-2(1H)-one]
EC50 (hD2 receptors; [7]): 0.4 nM
Emax (hD2 receptors; [8]): -19%
Ki (D2 receptors [1]; [4]): 0.45 ± 0.02 nM
EC50 (D2 receptors [2]; [6]): 0.6 nM
Emax (D2 receptors [2]; [5]): 31%

melting point: 130 to 131 °C
Structure (SMILES): O=C1CCc2ccc(OCCCN3CCCN(c4cccc(Cl)c4Cl)CC3)cc2N1 [Compound 1, 7-(3-(4-(2,3-dichlorophenyl)-1,4-diazepan-1-yl)propoxy)-3,4-dihydroquinolin-2(1H)-one]

Structure (SMILES): CC(=O)Nc1cc(OCCCCN2CCN(c3cccc(Cl)c3Cl)CC2)ccc1C [Compound 43, N-(5-(4-(4-(2,3-dichlorophenyl)piperazin-1-yl)butoxy)-2-methylphenyl)acetamide]
cAMP (GloSensor) activity in words (merged EC50/Emax cell) (hD2 receptors): neutral
Ki (D2 receptors [1]; [4]): 72 ± 4 nM
EC50 (D2 receptors [2]; [6]): 9.2 nM
Emax (D2 receptors [2]; [5]): 59%

Structure (SMILES): COc1ccccc1N1CCN(CCCCOc2ccc3c(n2)NC(=O)CC3)CC1 [Compound 37]
EC50 (hD2 receptors; [7]): 11 nM
Emax (hD2 receptors; [8]): 17%
Ki (D2 receptors [1]; [4]): 1.7 ± 0.1 nM
EC50 (D2 receptors [2]): 1 nM
Emax (D2 receptors [2]; [5]): 67%

Structure (SMILES): O=C1CCc2ccc(OCC3CCC(CN4CCN(c5cccc(Cl)c5Cl)CC4)CC3)cc2N1 (centres unmarked) [Compound 26, 7-((4-((4-(2,3-dichlorophenyl)piperazin-1-yl)methyl)cyclohexyl)methoxy)-3,4-dihydroquinolin-2(1H)-one]
EC50 (hD2 receptors; [7]): 46000 nM
Emax (hD2 receptors; [8]): -25%
Ki (D2 receptors [1]; [4]): 145 ± 22 nM
β-arrestin (Tango) % activ at 1 μM (D2 receptors [2]): 6%
EC50 (D2 receptors [2]; [6]): 2100 nM
Emax (D2 receptors [2]; [5]): 51%

Structure (SMILES): Clc1cccc(C2CCN(CCCOc3ccc4scnc4c3)CC2)c1Cl [Compound 22, 5-(3-(4-(2,3-dichlorophenyl)piperidin-1-yl)propoxy)benzo[d]thiazole]
cAMP (GloSensor) activity in words (merged EC50/Emax cell) (hD2 receptors): neutral
Ki (D2 receptors [1]; [4]): 75 ± 12 nM
EC50 (D2 receptors [2]): 51 nM
β-arrestin (Tango) % activ at 1 μM (D2 receptors [2]): 59%
β-arrestin (Tango) Emax (D2 receptors [2]; [5]): 100%
EC50 (hD2L dopamine receptor; CHO-hD2L cells, read-out: p-ERK EC50): 58 nM
Emax (hD2L dopamine receptor; normalized to dopamine, read-out: p-ERK Emax): 50%

Structure (SMILES): O=C1CCc2ccc(Oc3ccc(CN4CCN(c5cccc(Cl)c5Cl)CC4)cc3)cc2N1 [Compound 31, 7-(4-((4-(2,3-dichlorophenyl)piperazin-1-yl)methyl)phenoxy)-3,4-dihydro quinolin-2(1H)-one]
EC50 (hD2 receptors; [7]): 5.7 nM
Emax (hD2 receptors; [8]): -47%
Ki (D2 receptors [1]; [4]): 108 ± 18 nM
β-arrestin (Tango) % activ at 1 μM (D2 receptors [2]): 16%
EC50 (D2 receptors [2]; [6]): 399 nM
Emax (D2 receptors [2]; [5]): 49%

Structure (SMILES): O=c1ccc2ccc(OCCCN3CCCN(c4cccc(Cl)c4Cl)CC3)cc2[nH]1 [Compound 15, 7-(3-(4-(2,3-dichlorophenyl)-1,4-diazepan-1-yl)propoxy)quinolin-2(1H)-one]
EC50 (hD2 receptors; [7]): 13 nM
Emax (hD2 receptors; [8]): 64%
Ki (D2 receptors [1]; [4]): 3.4 ± 0.2 nM
melting point: 117 to 118 °C
EC50 (D2 receptors [2]; [6]): 2.2 nM
Emax (D2 receptors [2]; [5]): 84%

Structure (SMILES): O=c1[nH]c2ccc(OCCCN3CCN(c4cccc(Cl)c4Cl)CC3)cc2[nH]1 [Compound 34, 5-(3-(4-(2,3-dichlorophenyl)piperazin-1-yl)propoxy)-1H-benzo[d]imidazol-2(3H)-one]
EC50 (hD2 receptors; [7]): 512 nM
Emax (hD2 receptors; [8]): 25%
Ki (D2 receptors [1]; [4]): 25 ± 3 nM
EC50 (D2 receptors [2]): 52 nM
β-arrestin (Tango) % activ at 1 μM (D2 receptors [2]): 36%
Emax (D2 receptors [2]; [5]): 78%

Structure (SMILES): CC(C)Oc1ccccc1N1CCCN(CCCCOc2ccc3c(n2)NC(=O)CC3)CC1 [Compound 17, 7-(4-(4-(2-isopropoxyphenyl)-1,4-diazepan-1-yl)butoxy)-3,4-dihydro-1,8-naphthyridin-2(1H)-one]
EC50 (hD2 receptors; [7]): 0.2 nM
Emax (hD2 receptors; [8]): 18%
Ki (D2 receptors [1]; [4]): 1.29 ± 0.03 nM
EC50 (D2 receptors [2]; [6]): 4.6 nM
Emax (D2 receptors [2]; [5]): 56%

Structure (SMILES): O=C1NCCc2ccc(OCCCN3CCN(c4cccc(Cl)c4Cl)CC3)cc21 [Compound 32, 7-(3-(4-(2,3-dichlorophenyl)piperazin-1-yl)propoxy)-3,4-dihydroisoquinolin-1(2H)-one]
cAMP (GloSensor) activity in words (merged EC50/Emax cell) (hD2 receptors): neutral
Ki (D2 receptors [1]; [4]): 18 ± 2 nM
β-arrestin (Tango) % activ at 1 μM (D2 receptors [2]): 44%
EC50 (D2 receptors [2]; [6]): 30 nM
Emax (D2 receptors [2]; [5]): 83%

Structure (SMILES): O=c1[nH]c2ccc(OCCCN3CCCN(c4cccc(Cl)c4Cl)CC3)cc2[nH]1 [Compound 19, 5-(3-(4-(2,3-dichlorophenyl)-1,4-diazepan-1-yl)propoxy)-1H-benzo[c]imidazol-2(3H)-one]
cAMP (GloSensor) activity in words (merged EC50/Emax cell) (hD2 receptors): neutral
Ki (D2 receptors [1]; [4]): 4.5 ± 0.2 nM
melting point: 148 to 150 °C
EC50 (D2 receptors [2]; [6]): 8.5 nM
Emax (D2 receptors [2]; [5]): 48%

Structure (SMILES): Clc1cccc(N2CCN(CCCOc3ccc4scnc4c3)CC2)c1Cl [Compound 23, 5-(3-(4-(2,3-dichlorophenyl)piperazin-1-yl)propoxy)benzo[d]thiazole]
EC50 (hD2 receptors; [7]): 9.8 nM
Emax (hD2 receptors; [8]): -16%
Ki (D2 receptors [1]; [4]): 30 ± 5 nM
melting point: 127 to 129 °C
β-arrestin (Tango) % activ at 1 μM (D2 receptors [2]): 48%
EC50 (D2 receptors [2]; [6]): 107 nM
Emax (D2 receptors [2]; [5]): 91%

Structure (SMILES): O=C1CCc2ccc(Oc3cccc(CN4CCN(c5cccc(Cl)c5Cl)CC4)c3)cc2N1 [Compound 30, 7-(3-((4-(2,3-dichlorophenyl)piperazin-1-yl)methyl)phenoxy)-3,4-dihydro quinolin-2(1H)-one]
cAMP (GloSensor) activity in words (merged EC50/Emax cell) (hD2 receptors): neutral
Ki (D2 receptors [1]; [4]): 113 ± 18 nM
melting point: 182 to 183 °C
EC50 (D2 receptors [2]): 297 nM
β-arrestin (Tango) % activ at 1 μM (D2 receptors [2]): 9%
Emax (D2 receptors [2]; [5]): 58%
